Several values for one entry are separate records, joined by “and”; a condition that tells them apart may be missing. Equal entries are not always repeated. Positions of bridges follow the written chain, without caps; N, C: chain ends. Non-standard residues stand in square brackets, D forms with d. Residues, ends and D or L forms follow the SMILES beside them. *: point of attachment. Ala(1-CH2CO2H-4-piperidyl) = N[C@@H](CC1CCN(CC(=O)O)CC1)C(=O)O; Trp(1-CH2COOH) = N[C@@H](Cc1cn(CC(=O)O)c2ccccc12)C(=O)O; NMePhe(3-Cl) = CN[C@@H](Cc1cccc(Cl)c1)C(=O)O; NMeY = CN[C@@H](Cc1ccc(O)cc1)C(=O)O; PEG4 = NCCOCCOCCOCCOCCC(=O)O; Carboxymethyl = O=C(O)C*

Here are results for 6 compounds from patent publication US20260116920A1, “HUMAN TRANSFERRIN RECEPTOR BINDING PEPTIDE” (PEPTIDREAM INC., priority 2021, published 2026).

T1 sequence (P02786 89-760 limits assumed): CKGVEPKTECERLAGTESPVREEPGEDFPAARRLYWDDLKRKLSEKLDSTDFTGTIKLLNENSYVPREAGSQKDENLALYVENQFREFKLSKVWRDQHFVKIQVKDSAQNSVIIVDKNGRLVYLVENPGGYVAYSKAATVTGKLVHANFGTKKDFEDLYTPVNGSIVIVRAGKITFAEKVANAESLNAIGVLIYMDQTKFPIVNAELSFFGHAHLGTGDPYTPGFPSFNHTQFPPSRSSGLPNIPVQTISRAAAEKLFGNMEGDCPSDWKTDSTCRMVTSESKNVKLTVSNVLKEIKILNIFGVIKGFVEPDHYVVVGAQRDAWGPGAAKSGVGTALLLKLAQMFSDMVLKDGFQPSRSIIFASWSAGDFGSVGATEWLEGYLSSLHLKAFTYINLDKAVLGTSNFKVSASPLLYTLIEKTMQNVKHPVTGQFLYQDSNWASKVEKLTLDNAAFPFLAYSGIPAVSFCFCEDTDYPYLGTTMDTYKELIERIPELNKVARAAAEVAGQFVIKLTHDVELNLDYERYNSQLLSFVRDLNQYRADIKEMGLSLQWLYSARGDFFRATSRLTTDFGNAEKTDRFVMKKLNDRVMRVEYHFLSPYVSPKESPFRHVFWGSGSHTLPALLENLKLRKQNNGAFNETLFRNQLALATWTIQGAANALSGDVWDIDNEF

One test has as its target T1, human transferrin receptor (hTfR) (Homo sapiens, UniProt P02786).
T1 construct: made in house
As to the kind of experiment: Evaluation of molecular interaction between transferrin receptor (hTfR) and peptide using surface plasmon resonance (SPR). In kind it is binding. The settings on record: KD class for binding to hTfR by SPR; peptide with the linker shown in the same line; 'low signal indicates no activity'; read-out: SPR. In a few lines:
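Single-cycle SPR kinetics, KD by least-squares sensorgram fitting, with peptide series of 100, 50, 25, 10 and 5 nM. Running buffer: 10 mM HEPES pH 8.0, 150 mM NaCl, 0.05% Tween 20, 0.1% BSA, 1.0% DMSO. Surface: hTfR dimer covalently coupled (EDC/NHS) onto Ni-NTA chip.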
On to `CC[C@H](C)[C@@H]1NC(=O)[C@H](Cc2ccc(OC)cc2)NC(=O)[C@H](Cc2ccc(O)cc2)NC(=O)[C@H](CC(N)=O)NC(=O)[C@H](Cc2c[nH]c3ccccc23)NC(=O)[C@H](C(C)C)NC(=O)[C@H](Cc2cccc(Cl)c2)N(C)C(=O)[C@H](C(C)C)NC(=O)[C@H](C)NC(=O)CSC[C@@H](C(=O)NCC(=O)N[C@@H](CCCCN=[N+]=[N-])C(N)=O)NC(=O)[C@H](Cc2ccc(O)cc2)N(C)C(=O)[C@H](Cc2ccc(O)cc2)NC(=O)[C@H](CCCNC(=N)N)NC(=O)[C@H](CCCCN)NC(=O)[C@H]([C@@H](C)CC)NC1=O` [894_3165], for which the Kd is 1 to 100 nM.
Take `CC[C@H](C)[C@@H]1NC(=O)[C@H](Cc2ccc(OCC(=O)O)cc2)NC(=O)[C@H](Cc2ccc(O)cc2)NC(=O)[C@H](CC(N)=O)NC(=O)[C@H](Cc2cn(CC(=O)O)c3ccccc23)NC(=O)[C@H](C(C)C)NC(=O)[C@H](Cc2cccc(Cl)c2)N(C)C(=O)[C@H](C(C)C)NC(=O)[C@H](C)NC(=O)CSC[C@@H](C(=O)NCC(=O)N[C@@H](CCCCN=[N+]=[N-])C(N)=O)NC(=O)[C@H](Cc2ccc(O)cc2)N(C)C(=O)[C@H](Cc2ccccc2)NC(=O)[C@H](CCC(=O)NCCOCCOCCOCCOCCOCCOCCOCCOC)NC(=O)[C@H](CCCNC(=N)N)NC(=O)[C@H]([C@@H](C)CC)NC1=O` [894_3173]: the Kd lay within 1 to 100 nM.
Consider `CC[C@H](C)[C@@H]1NC(=O)[C@H](Cc2ccc(OC)cc2)NC(=O)[C@H](Cc2ccc(N)nc2)NC(=O)[C@H](CC(N)=O)NC(=O)[C@H](Cc2cn(CC(=O)O)c3ccccc23)NC(=O)[C@H](C(C)C)NC(=O)[C@H](Cc2cccc(Cl)c2)N(C)C(=O)[C@H](C(C)C)NC(=O)[C@H](C)NC(=O)CSC[C@@H](C(=O)NCC(=O)N[C@@H](CCCCN=[N+]=[N-])C(N)=O)NC(=O)[C@H](Cc2ccc(O)cc2)N(C)C(=O)[C@H](Cc2ccncc2)NC(=O)[C@H](CCCNC(=N)N)NC(=O)[C@H](CCCNC(=N)N)NC(=O)[C@H]([C@@H](C)CC)NC1=O` [894_3187], for which the Kd lay in the range of 1 to 100 nM.
In the case of `CC[C@H](C)[C@@H]1NC(=O)[C@H](Cc2ccc(OCC(=O)O)cc2)NC(=O)[C@H](Cc2ccc(O)cc2)NC(=O)[C@H](CC(N)=O)NC(=O)[C@H](Cc2cn(CC(=O)O)c3ccccc23)NC(=O)[C@H](C(C)C)NC(=O)[C@H](Cc2cccc(Cl)c2)N(C)C(=O)[C@H](C(C)C)NC(=O)[C@H](C)NC(=O)CSC[C@@H](C(=O)NCCOCCOCCOCCOCCC(N)=O)NC(=O)[C@H](Cc2ccc(O)cc2)N(C)C(=O)[C@H](Cc2ccccc2)NC(=O)[C@H](CC2CCN(CC(=O)O)CC2)NC(=O)[C@H](CCCNC(=N)N)NC(=O)[C@H]([C@@H](C)CC)NC1=O` [894_0387] ({CH2CO}-AV[NMePhe(3-Cl)]V[Trp(1-CH2COOH)]NYY(Carboxymethyl)IIR[Ala(1-CH2CO2H-4-piperidyl)]F[NMeY]C[PEG4]-NH2; thioether N-15), the Kd was 1 to 100 nM.
With `CC[C@H](C)[C@@H]1NC(=O)[C@H](Cc2ccc(OC)cc2)NC(=O)[C@H](Cc2ccc(N)nc2)NC(=O)[C@H](CC(N)=O)NC(=O)[C@H](Cc2c[nH]c3ccccc23)NC(=O)[C@H](C(C)C)NC(=O)[C@H](Cc2cccc(Cl)c2)N(C)C(=O)[C@H](C(C)C)NC(=O)[C@H](C)NC(=O)CSC[C@@H](C(=O)NCC(=O)N[C@@H](CCCCN=[N+]=[N-])C(N)=O)NC(=O)[C@H](Cc2ccc(O)cc2)N(C)C(=O)[C@H](Cc2ccncc2)NC(=O)[C@H](CCCNC(=N)N)NC(=O)[C@H](CCCNC(=N)N)NC(=O)[C@H]([C@@H](C)CC)NC1=O` [894_3190], the Kd was in the range of 1 to 100 nM.

The same test, now with this note: SPR, immobilized recombinant hTfR, single-cycle kinetics; substitution variants of 894_3151; read-out: KD.
As to `CC[C@H](C)[C@@H]1NC(=O)[C@H](Cc2ccc(O)cc2)NC(=O)[C@H](Cc2ccc(O)cc2)NC(=O)[C@H](CC(N)=O)NC(=O)[C@H](Cc2c[nH]c3ccccc23)NC(=O)[C@H](C(C)C)NC(=O)[C@H](Cc2ccccc2)N(C)C(=O)[C@H](C(C)C)NC(=O)[C@H](C)NC(=O)CSC[C@@H](C(=O)NCC(=O)N[C@@H](CCCCN=[N+]=[N-])C(N)=O)NC(=O)[C@H](Cc2ccc(O)cc2)N(C)C(=O)[C@H](Cc2ccc(O)cc2)NC(=O)[C@H](CCCNC(=N)N)NC(=O)[C@H](CCCNC(=N)N)NC(=O)[C@H]([C@@H](C)CC)NC1=O` [compound 13], the Kd was 1.3 nM.

The same test, now with this note: ratio of KD to KD of 894_3151 (SEQ ID NO: 13).
`CC[C@H](C)[C@@H]1NC(=O)[C@H](Cc2ccc(O)cc2)NC(=O)[C@H](Cc2ccc(O)cc2)NC(=O)[C@H](CC(N)=O)NC(=O)[C@H](Cc2c[nH]c3ccccc23)NC(=O)[C@H](C(C)C)NC(=O)[C@H](Cc2ccccc2)N(C)C(=O)[C@H](C(C)C)NC(=O)[C@H](C)NC(=O)CSC[C@@H](C(=O)NCC(=O)N[C@@H](CCCCN=[N+]=[N-])C(N)=O)NC(=O)[C@H](Cc2ccc(O)cc2)N(C)C(=O)[C@H](Cc2ccc(O)cc2)NC(=O)[C@H](CCCNC(=N)N)NC(=O)[C@H](CCCNC(=N)N)NC(=O)[C@H]([C@@H](C)CC)NC1=O` [compound 13]: the “KD (Each Peptide)/KD (894_3151)” value is 1.0 and 1.4.

The same test, now with this note: surface plasmon resonance, binding to hTfR; KD class symbol; read-out: SPR (KD value).
Regarding `CC[C@H](C)[C@@H]1NC(=O)[C@H](Cc2ccc(O)cc2)NC(=O)[C@H](Cc2ccc(O)cc2)NC(=O)[C@H](CC(N)=O)NC(=O)[C@H](Cc2c[nH]c3ccccc23)NC(=O)[C@H](C(C)C)NC(=O)[C@H](Cc2ccccc2)N(C)C(=O)[C@H](C(C)C)NC(=O)[C@H](C)NC(=O)CSC[C@@H](C(=O)NCC(=O)N[C@@H](CCCCN=[N+]=[N-])C(N)=O)NC(=O)[C@H](Cc2ccc(O)cc2)N(C)C(=O)[C@H](Cc2ccc(O)cc2)NC(=O)[C@H](CCCNC(=N)N)NC(=O)[C@H](CCCNC(=N)N)NC(=O)[C@H]([C@@H](C)CC)NC1=O` [compound 13], the Kd was less than 1 nM.
